Laboratory results: publication PMC5845353, “The selective cathepsin K inhibitor MIV-711 attenuates joint pathology in experimental animal models of osteoarthritis” (Journal of Translational Medicine, 2018)
“And” between values parts separate entries of the source, which are not always exact repeats. Identical values can stand only once.

Key:
[1] = system: plasma proteins; assay: Fraction bound to plasma proteins, human; format: in vitro ADME
[2] = system: dogs subjected to partial medial meniscectomy; assay: Dog partial medial meniscectomy study, microscopic cartilage degeneration scores; format: in vivo; design: key to Total Joint CD Score: sum of tibial and femoral degeneration scores (1=minimal…3=moderate)
From the text: The proximal end of the left tibia and the distal end of the left femur were removed using a hacksaw and collected into 10% neutral buffered formalin. Bones were allowed to fix for 5 days and then the tissues were placed in formic acid decalcifier (5-20%). After decalcification, the surface area at risk for lesion development of the tibia (medial and lateral plateaus) and femur (medial and lateral condyles) was divided into 3 slabs (anterior to posterior) approximately 2-4 mm thick for processing, embedding, sectioning (8 µm) and staining (Toluidine Blue). The lesions are in reasonably consistent locations in all animals, therefore, the same surfaces and area were consistently embedded for all animals. Blocks containing tissue were numbered 1-3 with 1 being the most anterior piece. In all cases, the anterior aspect of the tissue was embedded down in the cassette for sectioning.
Compartmentalized lesions on medial tibia and medial femur (cartilage degeneration and osteophytes) were scored for each of the 3 (anterior to posterior) sections using the following system:
1=minimal degeneration, chondrocyte and proteoglycan loss with or without fibrillation involving the superficial zone or extending into the upper 10% of the cartilage thickness or at least 5% but not more than 10% overall total proteoglycan and cell loss in the zone if lesion is focal and deeper in some areas. Deeper and more extensive proteoglycan loss only without any evidence of chondrocyte loss and collagen damage is also given a score of 1 as this is a minor and reversible change
2=mild degeneration, chondrocyte and proteoglycan loss with fibrillation involving mainly the upper 11-25% of cartilage thickness, fibrillation generally superficial (upper 10%) while chondrocyte and proteoglycan loss extend into approximately 11-25% of the cartilage depth, or 11-25% overall chondrocyte and proteoglycan loss in the zone if lesion is focal and deeper in some areas. Deeper areas of proteoglycan loss only, without chondrocyte loss or collagen disruption (reversible changes) may be present
3=moderate degeneration, chondrocyte and proteoglycan loss with fibrillation extending well into the midzone and generally affecting 1/2 (50%) of the total cartilage thickness, fibrillation/collagen damage generally extends into upper 25% while chondrocyte and proteoglycan loss extend through 50% thickness, or 26-50% overall chondrocyte and proteoglycan loss in the zone if lesion is focal and deeper in some areas. Deeper areas of proteoglycan loss only, without chondrocyte loss or collagen disruption (reversible changes) may be present
4=marked degeneration, chondrocyte and proteoglycan loss with fibrillation extending through the mid zone through 3/4 f the depth (51-75% of cartilage thickness) but without complete (to the tidemark) loss of chondrocytes or proteoglycan, fibrillation/collagen damage generally extend through the mid zone (50% thickness) but deep zone collagen remains intact, or 51-75% overall chondrocyte and proteoglycan loss in the zone if lesion is focal and deeper in some areas. Deeper areas of proteoglycan loss only, without chondrocyte loss or collagen disruption (reversible changes) may be present
5=severe degeneration, chondrocyte and proteoglycan loss to near tidemark (76-100% of depth) with slightly less severe collagen damage or 76-100% overall chondrocyte and proteoglycan loss in the zone.
Each medial tibial plateau and medial femoral condyle anterior to posterior section was further divided visually with an ocular micrometer into fourths and numbered 1,2,3,4 with 1 being the outside and 4 being the inside quadrant. A mean score for the four levels was calculated. In addition, means of the 3 sections for each quadrant were determined in order to convey lesion severity in various axial to abaxial locations. Overall tibial and femoral values were summed for a total joint cartilage degeneration score.

[3] = system: Knee OA patients; settings: once daily treatment for 6 months; cited from earlier work
[4] = individual dogs of MIV-711 group
[5] = individual dogs of MIV-711 group, score=depth (1-5), mean of 4 quadrants

SMILES: C#C[C@@H]1CN(C(=O)[C@H](CC(C)C)NC(=O)c2ccc(-c3nc(N4CCN(C)CC4)sc3F)cc2)[C@@H]2C(=O)CO[C@H]12 [MIV-711]
- fraction bound to plasma proteins [1]: 94%
- Femur Cartilage Degeneration Score Level 1 ([2]; MIV-711 group mean): 0.57
- Femur Cartilage Degeneration Score Level 2 ([2]; MIV-711 group mean): 0.65
- Femur Cartilage Degeneration Score Level 3 ([2]; MIV-711 group mean): 0.77
- Femur Cartilage Degeneration Score Mean ([2]; MIV-711 group mean): 0.66
- Femur Cartilage Degeneration Score Zone 1 ([2]; MIV-711 group mean): 1.16
- Femur Cartilage Degeneration Score Zone 2 ([2]; MIV-711 group mean): 1.09
- Femur Cartilage Degeneration Score Zone 3 ([2]; MIV-711 group mean): 0.33
- Femur Cartilage Degeneration Score Zone 4 ([2]; MIV-711 group mean): 0.07
- Tibia Cartilage Degeneration Score Level 1 ([2]; MIV-711 group mean): 0.60
- Tibia Cartilage Degeneration Score Level 2 ([2]; MIV-711 group mean): 1.22
- Tibia Cartilage Degeneration Score Level 3 ([2]; MIV-711 group mean): 0.92
- Tibia Cartilage Degeneration Score Mean ([2]; MIV-711 group mean): 0.91
- Tibia Cartilage Degeneration Score Zone 1 ([2]; MIV-711 group mean): 0.33
- Tibia Cartilage Degeneration Score Zone 2 ([2]; MIV-711 group mean): 1.76
- Tibia Cartilage Degeneration Score Zone 3 ([2]; MIV-711 group mean): 1.02
- Tibia Cartilage Degeneration Score Zone 4 ([2]; MIV-711 group mean): 0.53
- Total Joint CD Score ([2]; MIV-711 group mean): 1.57
- % inhibition, Femur Cartilage Degeneration Score Level 1 ([2]; MIV-711 group vs vehicle): 13%
- % inhibition, Femur Cartilage Degeneration Score Level 2 ([2]; MIV-711 group vs vehicle): 0%
- % inhibition, Femur Cartilage Degeneration Score Level 3 ([2]; MIV-711 group vs vehicle): 8%
- % inhibition, Femur Cartilage Degeneration Score Mean ([2]; MIV-711 group vs vehicle): 7%
- % inhibition, Femur Cartilage Degeneration Score Zone 1 ([2]; MIV-711 group vs vehicle): -6%
- % inhibition, Femur Cartilage Degeneration Score Zone 2 ([2]; MIV-711 group vs vehicle): 6%
- % inhibition, Femur Cartilage Degeneration Score Zone 3 ([2]; MIV-711 group vs vehicle): 32%
- % inhibition, Femur Cartilage Degeneration Score Zone 4 ([2]; MIV-711 group vs vehicle): 40%
- % inhibition, Tibia Cartilage Degeneration Score Level 1 ([2]; MIV-711 group vs vehicle): 41%
- % inhibition, Tibia Cartilage Degeneration Score Level 2 ([2]; MIV-711 group vs vehicle): 9%
- % inhibition, Tibia Cartilage Degeneration Score Level 3 ([2]; MIV-711 group vs vehicle): -38%
- % inhibition, Tibia Cartilage Degeneration Score Mean ([2]; MIV-711 group vs vehicle): 9%
- % inhibition, Tibia Cartilage Degeneration Score Zone 1 ([2]; MIV-711 group vs vehicle): 48%
- % inhibition, Tibia Cartilage Degeneration Score Zone 2 ([2]; MIV-711 group vs vehicle): 0%
- % inhibition, Tibia Cartilage Degeneration Score Zone 3 ([2]; MIV-711 group vs vehicle): 8%
- % inhibition, Tibia Cartilage Degeneration Score Zone 4 ([2]; MIV-711 group vs vehicle): -4%
- % inhibition, Total Joint CD Score ([2]; MIV-711 group vs vehicle): 8%
- decrease in cartilage degeneration scores in level 1 (anterior) of the tibia ([2]; dog, 30 µmol/kg vs vehicle, statistically significant): 41%
- Femur Cartilage Degeneration Score Zone 1 [2, 4]: 1.00 and 0.33 and 2.00 and 1.33 and 0.67
- Femur Cartilage Degeneration Score Zone 2 [2, 4]: 1.33 and 1.67 and 0.00 and 2.00 and 1.00 and 0.33 and 2.33
- Femur Cartilage Degeneration Score Zone 3 [2, 4]: 0.33 and 0.00 and 1.33 and 1.67
- Femur Cartilage Degeneration Score Zone 4 [2, 4]: 0.00 and 0.33
- Tibia Cartilage Degeneration Score Zone 1 [2, 4]: 0.33 and 0.67 and 0.00 and 1.00
- Tibia Cartilage Degeneration Score Zone 2 [2, 4]: 1.67 and 1.33 and 2.00 and 2.33
- Tibia Cartilage Degeneration Score Zone 3 [2, 4]: 1.33 and 1.00 and 1.67 and 0.67 and 0.33
- Tibia Cartilage Degeneration Score Zone 4 [2, 4]: 0.67 and 0.33 and 0.00 and 1.00
- Total Joint CD Score [2, 4]: 1.08 and 1.67 and 1.75 and 0.75 and 2.42 and 1.33 and 1.50 and 1.25 and 2.00 and 1.83 and 3.00
- Femur Cartilage Degeneration Score Level 1 [2, 5]: 0.50 and 0.25 and 0.75 and 1.00
- Femur Cartilage Degeneration Score Level 2 [2, 5]: 0.50 and 1.00 and 0.00 and 1.75 and 0.75 and 0.25
- Femur Cartilage Degeneration Score Level 3 [2, 5]: 0.50 and 1.00 and 0.00 and 1.50 and 0.25 and 1.25 and 0.75 and 2.00
- Femur Cartilage Degeneration Score Mean [2, 5]: 0.50 and 0.67 and 0.83 and 0.08 and 1.33 and 0.58 and 0.33 and 0.25 and 1.58
- Tibia Cartilage Degeneration Score Level 1 [2, 5]: 0.25 and 0.00 and 0.50 and 1.25 and 0.75 and 1.00 and 1.50
- Tibia Cartilage Degeneration Score Level 2 [2, 5]: 1.00 and 1.25 and 1.75 and 1.50 and 0.50
- Tibia Cartilage Degeneration Score Level 3 [2, 5]: 0.50 and 1.50 and 1.00 and 1.25 and 0.75 and 0.00
- Tibia Cartilage Degeneration Score Mean [2, 5]: 0.58 and 1.00 and 0.92 and 0.67 and 1.08 and 0.75 and 1.17 and 0.42 and 1.42
- benefit on joint structure by MRI compared to placebo [3]: significantly lower increases in bone area and cartilage thinning
